# Where two headings read alike, the source gives them in different places.
# Legend:
# [1] = Proof of concept: solid phase oxidation in a ball mill with a solid catalyst; format: physicochemical
# Description: The first experiment was focused on a simple, well characterized API and other molecules with low structural complexity but with representative functional groups. They were systematically combined with a selection of potentially suitable catalysts. The solid phase reactions were initiated by ball milling for energy transfer in a controlled environment. In a first experimental set-up the oxidation in solid phase systems was analysed including a systematic evaluation of various catalysts, carrier matrices and reaction conditions.
# The following analytical methods were implemented. Two solid phase oxidation reactions were prepared. The catalyst used was KMnO4 on silica and the active reaction container was a ball mill.
# [2] = acidic stressor at 40° C./75% relative humidity for 3 months; cited from earlier work
# [3] = KMnO4 on aluminium oxide, dry; process times 60 to 300 minutes
# [4] = 90 min, no additives
# Description: As documented in literature clopidogrel bisulphate exists in one amorphous and two polymorphic forms, polymorph II was used for the experiments described. To elucidate the stability and detect changes of the polymorphic form after energy input a simple experimental set-up with the API and no further additives was executed and the polymorphic form was analysed by WAXS (wide-angel X-ray scattering) and DSC (differential scanning calorimetry).
# These experiments could be used to evaluate the stability of various polymorphic forms in general, but could also indicate the stability/instability during industrial processing and manufacturing.
# [5] = after 60 minutes process time
"oxidation product(s) formed ([1]; KMnO4 on silica, ball mill)",time-dependency of the degradation reaction [3],polymorphic form after milling (DSC profile) ([4]; milling 10 Hz),"quantity of degradation, solid phase conditions vs conventional forced degradation conditions ([5]; based on AUCs in the HPLC method)","acidic degradation product (RT 15 min) ([5]; solid phase set-up, acidic solid phase catalyst)",SMILES,oxidation product(s) formed ([1]; on aluminium oxide),acidic degradation product (RT 15 min) [2],follow-up or second line degradation products [3],oxidative degradation products formed [3],polymorphic form after milling (DSC profile) ([4]; milling 25 Hz)
diphenylsulfoxide and diphenylsulfone,,,,,c1ccc(Sc2ccccc2)cc1 [diphenylsulfide],"solely the higher oxidation state product diphenyl sulfone, but no diphenylsulfoxide",,,,
,clear time-dependency,minor changes and higher stability,comparable amount,could also be detected,COC(=O)[C@H](c1ccccc1Cl)N1CCc2sccc2C1 [clopidogrel bisulphate],,detected,no follow-up or second line degradation products occurred,two oxidative solid phase degradation products,change of the polymorphic form II to the amorphous state
